Measured values as given in US20170050980A1, “OXADIAZINE COMPOUNDS AND METHODS OF USE THEREOF” (FORUM Pharmaceuticals Inc., priority 2015, published 2017).

test system: Aβ42; assay: In vitro cell screening assay; quantification of Aβ (1-42) peptide by sandwich ELISA; type: cell-based; conditions: Human neuroglioma H4 cells stably expressing human wild type APP751; compounds 0.003-10 μM, incubated overnight (16-18 h); Aβ42 in supernatant by sandwich ELISA; normalized to DMSO and DAPT; read-out: Aβ42 H4 Prot Fre IC50
Description: Human neuroglioma H4 cells were transfected with a pcDNA3.1 plasmid expressing human wild type APP751 cDNA and a stable cell line was generated using G418 selection. Cells were plated at 15,000 cells/well in Costar 96-well plates and placed at 37° C. and 5% CO2. Six hours after plating, cells were washed three times with Pro293™ chemically defined medium, followed by addition of compounds (0.003-10 μM, final DMSO concentration of 0.33%). Plates were incubated overnight (16-18 h) and supernatant was removed for quantification of Aβ peptides by sandwich ELISA. Cytotoxicity was evaluated using Cell-Titer 96W AQueous One Solution Cell Proliferation Assay according to the manufacturer's protocol.
Aβ peptide levels were quantified by sandwich ELISA. 96-well plates were coated with C-terminal specific Aβ antibodies recognizing either Aβ37, Aβ38, Aβ40, Aβ42, Aβ43 or a N-terminal specific Aβ antibody to detect Aβ 1-x. Plates were then blocked overnight at 4° C. with 1% bovine serum albumin (BSA) in PBS-T. Plates were washed and 100 μl of cultured cell supernatant or synthetic Aβ peptide standards and a detection antibody (4G8-HRP) were applied to the blocked plate and incubated overnight at 4° C. The next day, wells were washed before the addition of detection substrate (TMB peroxidase). Plates were then read for absorbance at 450 nm on a Molecular Devices SpectraMax M5e Microplate Reader.
Compound-treated samples were normalized to samples treated with DMSO alone (no inhibition) and to samples treated with DAPT. IC50 values were calculated from values reported as percent of DMSO controls using nonlinear regression, based on a sigmoidal dose—response (variable slope) model. […] used for calculation.

Point of comparison: COc1nc(C2=NOC(C)C(c3c4n(c5ccc(Cl)cc35)CCOC4)N2)ccc1-n1cnc(C)c1 (single isomer, unassigned; (+)) [Example 50A, (+)-8-chloro-10-(3-(6-methoxy-5-(4-methyl-1H-imidazol-1-yl)pyridin-2-yl)-6-methyl-5,6-dihydro-4H-1,2,4-oxadiazin-5-yl)-3,4-dihydro-1H-[1,4] oxazino [4,3-a] indole], IC50 0.0032 µM. Against it:
- COc1nc(C2=NOC(C)C(c3cccc(Cl)c3)N2)ccc1-n1cnc(Cl)c1 (single isomer, unassigned; (+)) [Example 47B, (+)-3-(5-(4-chloro-1H-imidazol-1-yl)-6-methoxypyridin-2-yl)-5-(3-chlorophenyl)-6-methyl-5,6-dihydro-4H-1,2,4-oxadiazine] — 11-fold higher, 0.0362 µM
- COc1nc(C2=NOC(C)C(c3ccc(Cl)cc3)N2)ccc1-c1ccnc(C)c1 (single isomer, unassigned; (+)) [Example 48B, (+)-5-(4-chlorophenyl)-3-(2-methoxy-2′-methyl-[3,4′-bipyridin]-6-yl)-6-methyl-5,6-dihydro-4H-1,2,4-oxadiazine] — 5.7-fold higher, 0.0182 µM
- COc1nc(C2=NOC(C)C(c3cccc(Cl)c3)N2)ccc1-c1ccnc(C)c1 (single isomer, unassigned; (+)) [Example 49B, (+)-5-(3-chlorophenyl)-3-(2-methoxy-2′-methyl-[3,4′-bipyridin]-6-yl)-6-methyl-5,6-dihydro-4H-1,2,4-oxadiazine] — 4.9-fold higher, 0.0158 µM
- COc1nc(C2=NOC(C)C(c3c4n(c5ccc(Cl)cc35)CCOC4)N2)ccc1-n1cnc(C)c1 (single isomer, unassigned; (+)) [Example 50D, (+)-8-chloro-10-(3-(6-methoxy-5-(4-methyl-1H-imidazol-1-yl)pyridin-2-yl)-6-methyl-5,6-dihydro-4H-1,2,4-oxadiazin-5-yl)-3,4-dihydro-1H-[1,4] oxazino [4,3-a] indole] — 2-fold higher, 0.0063 µM
- COc1nc(C2=NOC(C)C(c3cn(C)c4ncc(F)c(F)c34)N2)ccc1-n1cnc(C)c1 (single isomer, unassigned; (+)) [Example 51A, (+)-5-(4,5-difluoro-1-methyl-1H-pyrrolo [2,3-b]pyridin-3-yl)-3-(6-methoxy-5-(4-methyl-1H-imidazol-1-yl)pyridin-2-yl)-6-methyl-5,6-dihydro-4H-1,2,4-oxadiazine] — 3.7-fold higher, 0.0117 µM
- COc1nc(C2=NOC(C)C(c3cn(C)c4ncc(F)c(F)c34)N2)ccc1-n1cnc(C)c1 (single isomer, unassigned; (+)) [Example 51C, (+)-5-(4,5-difluoro-1-methyl-1H-pyrrolo [2,3-b]pyridin-3-yl)-3-(6-methoxy-5-(4-methyl-1H-imidazol-1-yl)pyridin-2-yl)-6-methyl-5,6-dihydro-4H-1,2,4-oxadiazine] — 300-fold higher, 0.975 µM
- COc1nc(C2=NOC(C)C(c3cn(C)c4ncc(F)c(F)c34)N2)ccc1-n1cnc(C)c1 (single isomer, unassigned; (+)) [Example 51D, (+)-5-(4,5-difluoro-1-methyl-1H-pyrrolo [2,3-b]pyridin-3-yl)-3-(6-methoxy-5-(4-methyl-1H-imidazol-1-yl)pyridin-2-yl)-6-methyl-5,6-dihydro-4H-1,2,4-oxadiazine] — 22-fold higher, 0.0689 µM
- COc1nc(C2=NOC(C)C(c3cn(C)c4ccc(F)c(F)c34)N2)ccc1-n1cnc(C)c1 (single isomer, unassigned; (+)) [Example 52B, (+)-5-(4,5-difluoro-1-methyl-1H-indol-3-yl)-3-(6-methoxy-5-(4-methyl-1H-imidazol-1-yl)pyridin-2-yl)-6-methyl-5,6-dihydro-4H-1,2,4-oxadiazine] — within 1.5-fold, 0.0029 µM
- COc1nc(C2=NOC(C)C(c3cn(C)c4ccc(F)c(F)c34)N2)ccc1-n1cnc(C)c1 (single isomer, unassigned; (+)) [Example 52C, (+)-5-(4,5-difluoro-1-methyl-1H-indol-3-yl)-3-(6-methoxy-5-(4-methyl-1H-imidazol-1-yl)pyridin-2-yl)-6-methyl-5,6-dihydro-4H-1,2,4-oxadiazine] — 1.8-fold higher, 0.0058 µM
